{"source": "patent US9005673B2", "about": "“Preservative and additive for food and feed” (priority 2005, dated 2015)", "test": "Contact of acid solutions with human skin", "settings": "solution with a pH of less than 0.5"}
{"smiles": "O=S(=O)(O)O", "note": "[sulfuric acid]", "values": [{"measurement": "irritation of a hand put into the solution", "result": "an irritation would occur"}]}
